assay: gradient 5% acetonitrile 3 min, to 50% in 2 min, to 85% in 15 min, held 3 min, 100 µL/min; conditions: column: Zorbax Extend-C18 2.1 x 50 mm; eluents: water / acetonitrile, 0.1% formic acid
Outline: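 Over 3 months, pure standards in mixtures of ~100 molecules were run by HPLC coupled to a quadrupole time-of-flight mass spectrometer in positive and negative ionization mode. The column was a Zorbax Extend-C18 (2.1 × 50 mm, 1.8 μm) at 100 μL/min, eluted with water and acetonitrile each holding 0.1% formic acid, with 40 μL dead and 900 μL dwell volumes. Retention time was determined from adduct peaks chosen by software and checked manually.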

SMILES	RP-LC retention time [s]
CCCn1c(=O)c2cc(C(=O)NCc3ccc(F)cc3Cl)nn2c2ccccc21	834
COc1cc2c(cc1OC)C(C(=O)NCC1COc3ccccc3O1)C(c1cccs1)N(C)C2=O (stereo unspecified)	842
COC(=O)c1ccc2c(=O)n(-c3cccc(Cl)c3)c(N3CCSC3)nc2c1	1110
CC1CCCN(C(=O)c2cn(-c3ccc(-c4nc(C(C)(C)C)no4)cn3)cn2)C1 (stereo unspecified)	1080
CN1C(=O)C2(CCN(C(=O)c3ccccc3Cl)C2)c2ccccc21 (stereo unspecified)	787
CC(C)CN1CCN(C(=O)c2cn3cc(Cl)ccc3n2)CC1	577
O=C1c2cccc3cccc(c23)C(=O)N1CC(=O)N1CCCc2ccccc21	593
CC(C)NC(=O)c1ccc(Cn2cncn2)cc1	597
CC(C)CN(Cc1cccnc1)C1CN(S(=O)(=O)c2cccnc2)C1	645
COc1ccccc1NC(=O)C(=O)c1cn(CC(=O)N2CCCC2)c2ccccc12	1130
COC(=O)C1=CN(c2cccc(OC)c2)c2cc(F)ccc2S1(=O)=O	857
Cc1sc(-c2cc(C(F)(F)F)on2)cc1S(=O)(=O)Nc1cccc(Cl)c1	1180
O=C(Cn1nc2n(c1=O)CCCCC2)Nc1cccc(F)c1	701
COc1cccc(CCC(=O)N2C[C@@H]3C[C@H](NC(=O)c4cccs4)[C@H]2C3)c1	728
CCc1cccc(C)c1NC(=O)Cn1c(=O)n(-c2ccc(F)cc2)c(=O)c2c1cc(C)n2C	850
CCOc1ccc(OCC)c(NC(=O)C(C)Oc2ccc(=O)n(-c3ccc(F)cc3)n2)c1 (stereo unspecified)	953
CN(Cc1ccccc1)C(=O)Cn1c(=O)c2cnc(-c3ccccc3)nc2n(C)c1=O	1020
O=C(O)c1nnn(-c2ccc(Cl)cc2)c1C(F)(F)F	828
O=C(Cc1c(Sc2ccc(F)cc2)[nH]c2ccccc12)N1CCN(c2ccccn2)CC1	714
Cc1cccc(Cn2nc3ccc(S(=O)(=O)N4CCC(C)CC4)cn3c2=O)c1	1040
O=C(Cn1nc(N2CCOCC2)c2ccccc2c1=O)N1CCN(c2ccccc2)CC1	800
COc1cccc(CNC(=O)c2cc3c(-c4cccs4)nn(-c4ccccc4)c3n2C)c1	1120

SMILES	RP-LC retention time [s]
Cc1ccccc1CC(=O)N1C[C@H](c2nc(-c3ccccc3)no2)[C@@H](C)C1	1070
Cc1ccc(-c2cc3n(n2)CCCN(C(=O)C2CCOC2)C3)cc1 (stereo unspecified)	712
Cc1noc(C)c1CC(=O)NCC12CCC=C1NC(=O)CC2 (stereo unspecified)	632
O=C(Nc1nccs1)c1cc(Cl)sc1Cl	836
COc1ccccc1NS(=O)(=O)c1ccc(-c2c(C)noc2C)cc1	924
Cc1ccc(N2CCC(NC(=O)c3cccs3)C2=O)cc1C (stereo unspecified)	827
O=C1CCCc2nc(N3CCN(c4ccccn4)CC3)ncc21	566
CCNC(=O)C1CCN(C2=NS(=O)(=O)C(c3ccc(C(C)C)cc3)=C2C)CC1	812
COC(=O)c1c(NCC2CCCO2)c2cccc(Cl)c2[nH]c1=O (stereo unspecified)	703
CN(C)c1cccc(C(=O)NC2CCN(c3ccccc3)C2=O)c1 (stereo unspecified)	667
CCOc1cccc2cc(C(=O)Nc3ccccc3S(C)(=O)=O)oc12	931
Cc1noc(C)c1CCC(=O)N1CCCCC1c1nncn1CC1CC1 (stereo unspecified)	655
CCc1noc(NC(C)=O)c1-c1ccc(OC)c(S(=O)(=O)Nc2c(C)cccc2C)c1	790
Cn1nc(C(=O)NCc2ccc3c(c2)OCO3)c2c1CCN(C(=O)c1ccco1)C2	725
O=C(Nc1nccs1)c1csc(Nc2ccccc2)n1	815
COCCNC(=O)C1CCCN(C(=O)c2[nH]c(C)c(C(=O)OC)c2C)C1 (stereo unspecified)	624
Cc1cc(C)c(S(=O)(=O)NCc2c(-c3ccccc3)nc3sc(C)nn23)c(C)c1	1020
CCn1c(=O)c(C)nc2cc(-c3noc(C4CC(=O)N(c5cccc(Cl)c5)C4)n3)ccc21 (stereo unspecified)	966
O=C(c1ccc(OCC2CCCN2C(=O)c2cccs2)cc1)N1CCCC1 (stereo unspecified)	815
CCCNC(=O)C1CC(=O)N(CCc2c[nH]c3ccc(F)cc23)C1 (stereo unspecified)	684
Cc1noc(C2(NC(=O)c3cccc(F)c3)CCCCC2)n1	860
Cc1noc(CNC(=O)C2CCN(S(=O)(=O)c3cccs3)CC2)n1	646

The next lines start with the values.

RP-LC retention time [s]	SMILES
661	Cc1ccc(CNC(=O)N2CCN(CCn3c(C(F)(F)F)nc4cccnc43)CC2)cc1
994	Cc1ccc(NC(=O)c2cc(C)n3nc(C)cc3n2)cc1
593	Cc1ccc2c(Nc3ccc(C)c(C)c3)c(C(=O)N3CCOCC3)cnc2n1
747	CCN1CCCn2cc(S(=O)(=O)N3CCCCCC3)cc2C1=O
613	COCCC1(N(C)C)CCN(S(=O)(=O)c2ccc(C#N)cc2)CC1
845	COCCn1c(C)cc(O)c(C(c2ccc(OC)cc2)N2CCC(C)CC2)c1=O (stereo unspecified)
1090	CCc1nc(-c2csc(S(=O)(=O)N3CCC(C(=O)Nc4cc(C)cc(C)c4)CC3)c2)no1
763	O=C(NC1CCCC1)c1ccc2c(c1)nc1n2CCN(C2CCCCC2)C1=O
927	O=S(=O)(CCc1noc(C2COc3ccccc3O2)n1)c1ccccc1 (stereo unspecified)
671	Cc1ccc(F)cc1NS(=O)(=O)c1cc2n(c1)CCCNC2=O
1020	CCSc1nc2ccc(NS(=O)(=O)c3ccc(F)cc3F)cc2s1
652	CCCN(C)C(=O)c1c(C)oc2c1CN(C(=O)CC)CC2
656	Cc1ccc(-c2nc3ccccc3[nH]2)cc1NC(=O)CC(C)C
914	CCOc1cc(=O)n2c(c1C(=O)OCc1ccccc1F)CCCCC2
726	Clc1ccc(-c2nc(N3CCCC3)c3ccccc3n2)cc1
807	O=C(Cc1nnc(-c2ccc3ncccc3c2)o1)NC1CCCCCC1
679	COc1ccc(C(=O)N2CC(n3cc(COCC4CC4)nn3)C2)cn1
711	Cc1nn(CC(=O)NC2CC2)c(=O)c2nc(-c3ccccc3)sc12
755	Cc1ccc2c(c1)C(=O)NC1(CCN(C(=O)NCCc3ccccc3)CC1)N2C
673	Cc1cccc(NC(=O)NCC(c2cccnc2)c2c[nH]c3ccccc23)c1 (stereo unspecified)
869	Cc1onc(-c2ccccc2)c1-c1ccc(S(N)(=O)=O)cc1
1020	Cc1csc(-c2cc(S(=O)(=O)N3CCCCC3)cn2CC(=O)N2CCCCC2)n1
716	Cc1nn(-c2cc(N(C)C)ncn2)c(C)c1CCC(=O)NCc1ccccc1
698	CCCNC(=O)CC1CCN(C(=O)c2[nH]c(C)c(C)c2C)CC1

RP-LC retention time [s]	SMILES
611	COc1ccc(-c2noc(Cn3ccnc3C)n2)cc1
846	CCOC(=O)C(Cc1ccc(O)cc1)Nc1nc2ccccc2o1 (stereo unspecified)
760	O=C1CCc2cc(NC(=O)c3ccc(-c4ccccc4)cc3)ccc2N1
825	COC(=O)CSc1nnc2c(S(=O)(=O)N3CCN(c4ccc(F)cc4)CC3)cccn12
583	O=C(Cn1cnc(-c2cccs2)cc1=O)NCCOc1ccc(-c2ccco2)nn1
605	CN1CCCN(C(=O)C2CN(S(=O)(=O)c3cccnc3)CC23CCCCC3)CC1 (stereo unspecified)
1090	CCCc1nc(-c2ccccc2)oc1CC(=O)Nc1ccc(Cl)cc1C
823	Cc1ccc(CNC(=O)C2(C)Cn3nc(C(=O)NCc4ccccc4C)cc3C(=O)N2C)cc1 (stereo unspecified)
704	Cc1cc2[nH]c(C(=O)Nc3ccc(Cl)cc3C)c(CN(C)C)c2s1
806	O=C(O)c1cn(Cc2ccc(F)cc2)c(=O)c2ccccc12
675	COCC(=O)N1CCCn2cc(-c3cccc(C#N)c3)nc21
784	Cc1cccc(C)c1NC(=O)Cn1ncc2c(c1=O)N(CC1CC1)C(=O)CS2
963	COc1ccc(-c2nc(-c3cn(Cc4ccc(F)cc4)nn3)no2)cc1
571	CC1=C(c2ccccc2)S(=O)(=O)N=C1N1CCCN(C(=O)c2ccsc2)CC1
968	CCN1C=C(C(=O)OCc2cccc(F)c2)C(C)=NS1(=O)=O
585	COCCCNC(=O)C1CCCN(c2cc(=O)n(C)c(=O)n2C)C1 (stereo unspecified)
670	Cc1ccc(C(=O)N2CCN(c3nnc4cccc(C)n34)CC2)cc1
725	c1ccc2c(-c3nc(C4CC4)no3)nnc(NC3CCCC3)c2c1
754	Cc1nc(-c2ccccn2)cc2nn(CC(=O)N3CCOCC3)c(=O)n12
915	O=C(Nc1ccccc1C(F)(F)F)c1cnc(-c2ccccc2)nc1-c1ccncc1
899	Cn1c(=O)n(C)c2cc(S(=O)(=O)c3ccc(F)cc3)c(NC(=O)c3ccc(F)cc3)cc21
610	CC(=O)Nc1cc(C(=O)NCc2ccccc2C)c2ccc(C)nc2c1
631	COCCNC(=O)CC1CCN(C(=O)c2[nH]c(C)cc2C)CC1

From the METLIN SMRT retention time set (Domingo-Almenara et al. 2019)
